Key:
Assay type in all cases: in vivo
[1] = test system: Kochia (Kochia scoparia); assay: Test A preemergence; conditions: Bassia scoparia, pre-emergence, 240 h, preemergence, read-out: Plant response rating, Kochia; for pest or weed control at 125 g/ha: 125 g ai/ha, visual rating after approx. 10 d, 0 to 100 scale where 0 is no effect and 100 is complete control; for pest or weed control at 500 g/ha: 500 g ai/ha, 0 to 100 scale, 0 = no effect, 100 = complete control
Summary of the method: (§1)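 Ratings of 0 (no effect) to 100 (complete control) come from visual comparison with untreated controls roughly 10 d after treatment. Test chemicals, formulated in a non-phytotoxic solvent mixture with surfactant, were applied either as a preemergence directed soil spray on seeded soil or postemergence to one- to two-leaf plants 2 to 10 cm tall.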

[2] = test system: barnyardgrass (Echinochloa crus-galli); assay: Test A preemergence; conditions: Echinochloa crus-galli, pre-emergence, 240 h, preemergence, read-out: Plant response rating, Barnyardgrass; for pest or weed control at 125 g/ha: 125 g ai/ha, visual rating after approx. 10 d, 0 to 100 scale where 0 is no effect and 100 is complete control; for pest or weed control at 500 g/ha: 500 g ai/ha, 0 to 100 scale, 0 = no effect, 100 = complete control
Summary of the method: as §1

[3] = test system: pigweed (Amaranthus retroflexus); assay: Test A preemergence; conditions: Amaranthus retroflexus, pre-emergence, 240 h, preemergence, read-out: Plant response rating, Pigweed; for pest or weed control at 125 g/ha: 125 g ai/ha, visual rating after approx. 10 d, 0 to 100 scale where 0 is no effect and 100 is complete control; for pest or weed control at 500 g/ha: 500 g ai/ha, 0 to 100 scale, 0 = no effect, 100 = complete control
[4] = test system: ragweed (common ragweed, Ambrosia elatior); assay: Test A preemergence; conditions: Ambrosia artemisiifolia, pre-emergence, 240 h, preemergence, read-out: Plant response rating, Ragweed; for pest or weed control at 125 g/ha: 125 g ai/ha, visual rating after approx. 10 d, 0 to 100 scale where 0 is no effect and 100 is complete control; for pest or weed control at 500 g/ha: 500 g ai/ha, 0 to 100 scale, 0 = no effect, 100 = complete control
Summary of the method: as §1

[5] = test system: ryegrass, Italian (Italian ryegrass, Lolium multiflorum); assay: Test A preemergence; conditions: Lolium multiflorum, pre-emergence, 240 h, preemergence, read-out: Plant response rating, Ryegrass, Italian; for pest or weed control at 125 g/ha: 125 g ai/ha, visual rating after approx. 10 d, 0 to 100 scale where 0 is no effect and 100 is complete control; for pest or weed control at 500 g/ha: 500 g ai/ha, 0 to 100 scale, 0 = no effect, 100 = complete control
Summary of the method: as §1

[6] = test system: Galium (catchweed bedstraw, Galium aparine); assay: Test A postemergence; conditions: Galium, post-emergence, 240 h, 125 g ai/ha, postemergence; visual injury after approximately 10 d; 0 to 100 scale (0 no effect, 100 complete control); read-out: Plant response rating, Galium
Summary of the method: as §1

[7] = test system: Kochia (Kochia scoparia); assay: Test A postemergence; conditions: Bassia scoparia, post-emergence, 240 h, 125 g ai/ha, postemergence; visual injury after approximately 10 d; 0 to 100 scale (0 no effect, 100 complete control); read-out: Plant response rating, Kochia
Summary of the method: as §1

[8] = test system: barnyardgrass (Echinochloa crus-galli); assay: Test A postemergence; conditions: Echinochloa crus-galli, post-emergence, 240 h, 125 g ai/ha, postemergence; visual injury after approximately 10 d; 0 to 100 scale (0 no effect, 100 complete control); read-out: Plant response rating, Barnyardgrass
Summary of the method: as §1

[9] = test system: blackgrass (Alopecurus myosuroides); assay: Test A postemergence; conditions: Alopecurus myosuroides, post-emergence, 240 h, 125 g ai/ha, postemergence; visual injury after approximately 10 d; 0 to 100 scale (0 no effect, 100 complete control); read-out: Plant response rating, Blackgrass
Summary of the method: as §1

[10] = test system: corn (Zea mays); assay: Test A postemergence; conditions: Zea mays, post-emergence, 240 h, 125 g ai/ha, postemergence; visual injury after approximately 10 d; 0 to 100 scale (0 no effect, 100 complete control)
Summary of the method: as §1

[11] = test system: giant foxtail (Setaria faberii); assay: Test A postemergence; conditions: Setaria faberi, post-emergence, 240 h, 125 g ai/ha, postemergence; visual injury after approximately 10 d; 0 to 100 scale (0 no effect, 100 complete control); read-out: Plant response rating, Foxtail, Giant
Summary of the method: as §1

[12] = test system: pigweed (Amaranthus retroflexus); assay: Test A postemergence; conditions: Amaranthus retroflexus, post-emergence, 240 h, 125 g ai/ha, postemergence; visual injury after approximately 10 d; 0 to 100 scale (0 no effect, 100 complete control); read-out: Plant response rating, Pigweed
Summary of the method: as §1

[13] = test system: ragweed (common ragweed, Ambrosia elatior); assay: Test A postemergence; conditions: Ambrosia artemisiifolia, post-emergence, 240 h, 125 g ai/ha, postemergence; visual injury after approximately 10 d; 0 to 100 scale (0 no effect, 100 complete control); read-out: Plant response rating, Ragweed
Summary of the method: as §1

[14] = test system: ryegrass, Italian (Italian ryegrass, Lolium multiflorum); assay: Test A postemergence; conditions: Lolium multiflorum, post-emergence, 240 h, 125 g ai/ha, postemergence; visual injury after approximately 10 d; 0 to 100 scale (0 no effect, 100 complete control); read-out: Plant response rating, Ryegrass, Italian
Summary of the method: as §1

[15] = test system: wheat (Triticum aestivum); assay: Test A postemergence; conditions: Triticum aestivum, post-emergence, 240 h, 125 g ai/ha, postemergence; visual injury after approximately 10 d; 0 to 100 scale (0 no effect, 100 complete control); read-out: Plant response rating, Wheat
Summary of the method: as §1

Compound	pest or weed control at 125 g/ha [1]	pest or weed control at 500 g/ha [1]	pest or weed control at 125 g/ha [2]	pest or weed control at 500 g/ha [2]	pest or weed control at 125 g/ha [3]	pest or weed control at 500 g/ha [3]	pest or weed control at 125 g/ha [4]	pest or weed control at 500 g/ha [4]	pest or weed control at 125 g/ha [5]	pest or weed control at 500 g/ha [5]	pest or weed control at 125 g/ha [6]	pest or weed control at 125 g/ha [7]	pest or weed control at 125 g/ha [8]	pest or weed control at 125 g/ha [9]	Corn plant response rating (crop injury, 0 = no effect, 100 = complete kill) at 125 g/ha [10]	pest or weed control at 125 g/ha [11]	pest or weed control at 125 g/ha [12]	pest or weed control at 125 g/ha [13]	pest or weed control at 125 g/ha [14]	plant injury at 125 g/ha [15]
CN1C[C@H](c2cc(F)cc(F)c2)[C@@H](C(=O)Nc2ccccc2S(C)(=O)=O)C1=O [Compound 739]	30%	80%	90%	100%	0%	30%	50%	80%	0%	30%	50%	30%	90%	0%	20%	90%	20%	30%	20%	0%
CN1C[C@H](c2ccc3c(c2)CCC3)[C@@H](C(=O)Nc2ccccc2F)C1=O [Compound 742]	60%	90%	90%	90%	20%	50%	20%	80%	50%	90%	50%	30%	90%	40%	70%	90%	0%	20%	60%	60%
CN1C[C@H](c2ccc3c(c2)CCC3)[C@@H](C(=O)Nc2cccc(F)c2F)C1=O [Compound 743]	60%	80%	90%	90%	0%	20%	0%	40%	90%	90%	50%	30%	90%	30%	60%	90%	0%	0%	40%	50%
CN1C[C@H](c2ccc3c(c2)CCC3)[C@@H](C(=O)Nc2ccccc2S(C)(=O)=O)C1=O [Compound 744]	60%	90%	20%	90%	20%	50%	0%	50%	0%	80%	30%	30%	60%	20%	40%	80%	0%	20%	30%	50%

— patent publication US12077503B2, “Substituted cyclic amides and their use as herbicides” (FMC CORPORATION, priority 2015, dated 2024)
